Experimental data as given in patent publication US7713967B2, “Therapeutic substituted hydantoins, and related compounds” (Allergan, Inc., priority 2008, dated 2010).

Tested on: lashes and adjacent hairs
Test: Clinical observation of lashes and adjacent hairs in glaucoma patients treated in one eye
Type: in vivo
Source text: In the course of treating patients having glaucoma, treatment may only be appropriate in one eye. […] The lash appearance on the lids of the treated eyes would have appeared quite attractive if it represented a bilateral phenomenon. As a result of its asymmetric nature, the long lashes on one side could be construed as disturbing from a cosmetic standpoint. A systemic examination was preformed as a result of the asymmetric phenomenon. It soon became apparent that this altered appearance was not an isolated finding. […] Definite differences could be identified to varying degrees in the lashes and adjacent hairs of all patients who were taking the drug on a unilateral basis for longer than 6 months.
The changes in the lashes were apparent on gross inspection in several patients once attention was focused on the issue. In those with light colored hair and lashes, the differences were only seen easily with the aid of the high magnification and lighting capabilities of the slit lamp biomicroscope. In the course of glaucoma follow-up examination, attention is generally immediately focused on the eye itself. As a result of the high power magnification needed only one eye is seen at a time and the eye is seen at a high enough power that the lashes are not in focus. […]

CCNC(=O)CCC/C=C\C[C@@H]1[C@@H](/C=C/[C@@H](O)CCc2ccccc2)[C@H](O)C[C@@H]1O [bimatoprost]
lash appearance in the treated eye versus the non-treated eye (glaucoma patient treated in one eye only): longer, thicker, and fuller | hair growth in treated versus control areas (multiple parameters of hair appearance, many subjects): stimulated
